These are literature values, as cited in US8404891B2, “Storage-stable formulation of paracetamol in aqueous solution” (Neogen N.V., priority 2009, dated 2013).

SMILES strings stand for the structures.

The conditions of the series: aqueous solution; K. T. Koshy et al., 1961.

For `CC(=O)Nc1ccc(O)cc1` [paracetamol, N-(4-hydroxy-phenyl)acetamide], the “pH at which rate of degradation is minimal” value was approximately 6.
